Columns and labels:
PLK4 (h) = molecular target: T1, PLK4 (h) (Homo sapiens, UniProt O00444); assay: PLK-4 human kinase scintillation proximity assay (SPA); assay type: biochemical; settings: 1 μM ATP, 60 minutes at r.t., read-out: PLK4 pIC50 (converted)
T1 sequence (O00444 1-970): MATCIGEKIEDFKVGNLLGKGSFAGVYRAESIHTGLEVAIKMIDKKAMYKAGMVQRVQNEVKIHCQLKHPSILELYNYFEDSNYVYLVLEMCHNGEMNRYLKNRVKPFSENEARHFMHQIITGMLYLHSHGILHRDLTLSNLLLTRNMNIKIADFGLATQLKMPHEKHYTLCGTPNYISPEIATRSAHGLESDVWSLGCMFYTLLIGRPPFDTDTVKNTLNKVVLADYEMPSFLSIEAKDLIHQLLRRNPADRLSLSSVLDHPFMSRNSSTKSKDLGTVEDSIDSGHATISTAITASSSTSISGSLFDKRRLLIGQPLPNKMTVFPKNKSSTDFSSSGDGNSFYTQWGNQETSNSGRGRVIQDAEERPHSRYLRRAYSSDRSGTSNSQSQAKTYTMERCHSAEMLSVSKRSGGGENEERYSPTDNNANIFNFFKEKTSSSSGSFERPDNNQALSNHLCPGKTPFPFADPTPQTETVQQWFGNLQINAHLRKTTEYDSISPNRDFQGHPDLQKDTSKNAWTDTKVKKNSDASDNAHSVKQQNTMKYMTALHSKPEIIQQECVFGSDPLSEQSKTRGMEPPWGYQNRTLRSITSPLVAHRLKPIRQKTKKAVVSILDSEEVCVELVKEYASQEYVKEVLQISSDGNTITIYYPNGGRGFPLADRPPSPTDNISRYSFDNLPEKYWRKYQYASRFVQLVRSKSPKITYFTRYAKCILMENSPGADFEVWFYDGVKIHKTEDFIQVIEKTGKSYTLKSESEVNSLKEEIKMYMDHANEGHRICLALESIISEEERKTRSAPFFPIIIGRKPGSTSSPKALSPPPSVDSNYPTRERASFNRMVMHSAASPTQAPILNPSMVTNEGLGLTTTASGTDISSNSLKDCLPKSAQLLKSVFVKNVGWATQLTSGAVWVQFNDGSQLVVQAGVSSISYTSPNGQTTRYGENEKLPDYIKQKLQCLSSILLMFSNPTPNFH
How it was run: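 Human PLK4 (19 μg/ml) reacted with 10 μM biotinylated peptide, 1 μM ATP plus 2 nM [γ-33P]ATP in HEPES pH 8.0 with MgCl2, NaCl, NaF and DTT for 60 min at r.t. After an EDTA stop, phosphorylated substrate was captured on streptavidin PVT SPA beads and scintillation imaged.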

A2780 = assay: Cellular proliferation assay (Alamar blue), A2780; assay type: cell-based; settings: Homo sapiens, A2780, A2780 cells; 10% FCS; 72 h with compound; Alamar blue 24 h; read-out: pIC50 A2780 (converted)
How it was run: (§1)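 Cells seeded 24 h, then exposed to compounds for 72 h in 10% FCS at 37° C, 5% CO2. Viability by Alamar blue (resazurin 9 μg/ml) fluorescence at 544/590 nm after 4 h (HCT-116), 6 h (U87-MG) or 24 h (A2780, PC3) dye incubation; effect expressed relative to control cells.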

MDA-MB-231 = assay: Cellular proliferation assay (Alamar blue), MDA-MB-231; assay type: cell-based; settings: Homo sapiens, MDA-MB-231, MDA-MB-231 cells; 10% FCS; 72 h with compound; Alamar blue 24 h; read-out: pIC50 MDA/MB231 (converted)
How it was run: (§2)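 Viable cell number is determined by Alamar blue conversion after cells are treated with compound for 72 hours, following 24 hours of growth without compound in 10% FCS. The effect is calculated against control cells.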

HCT-116 = assay: Cellular proliferation assay (Alamar blue), HCT-116; assay type: cell-based; settings: Homo sapiens; HCT-116 cells; 10% FCS; 72 h with compound; Alamar blue 4 h; read-out: pIC50 HCT-116 (converted)
How it was run: as §1

U87-MG = assay: Cellular proliferation assay (Alamar blue), U87-MG; assay type: cell-based; settings: Homo sapiens, U-87 MG; U87-MG cells; 10% FCS; 72 h with compound; Alamar blue 6 h; read-out: pIC50 U87MG (converted)
How it was run: as §1

H1299 = assay: Cellular proliferation assay (Alamar blue), H1299; assay type: cell-based; settings: Homo sapiens, NCI-H1299, H1299 cells; 10% FCS; 72 h with compound; Alamar blue 4 h; read-out: pIC50 H1299 (converted)
How it was run: as §2

PC3 = assay: Cellular proliferation assay (Alamar blue), PC3; assay type: cell-based; settings: Homo sapiens, PC-3, PC-3 cells; 10% FCS; 72 h with compound; Alamar blue 24 h; read-out: pIC50 PC-3 (converted)
How it was run: as §1

Row | Compound | melting point [°C] | IC50 (PLK4 (h)) [µM] | IC50 (A2780) [µM] | IC50 (MDA-MB-231) [µM] | IC50 (HCT-116) [µM] | IC50 (U87-MG) [µM] | IC50 (H1299) [µM] | IC50 (PC3) [µM]
1 | COCCOc1c(OC)cc2cc1OCC(=O)N(C)CCCN(C)Cc1c[nH]c3ncnc(c13)N2 [Compound 161] | 201.4 |  |  |  |  |  |  | 
2 | CN1CCCN(C)C(=O)COc2cc(ccc2OC2CCOCC2)Nc2ncnc3[nH]cc(c23)C1 [Compound 74] | 270.9 | 0.2 |  |  |  |  |  | 
3 | COCCN(CCOc1ccc2cc1OCC(=O)N(C)CCCN(C)Cc1c[nH]c3ncnc(c13)N2)Cc1ccccc1 [Compound 141] |  | 0.0398 | 0.2 | 3.98 | 0.398 | 2.51 | 1.26 | 3.16
4 | CC(C)NC(=O)Nc1ccc2cc1OCC(=O)N(C)CCCN(C)Cc1c[nH]c3ncnc(c13)N2 [Compound 122] |  | 0.2 | 3.98 | > 10 | 6.31 | > 10 | 7.94 | > 10
5 | COc1ccc2cc1OCC(=O)N(C(C)C)CCCN(C)Cc1c[nH]c3ncnc(c13)N2 [Compound 12] |  | 0.0794 | 5.01 | > 10 | 7.94 | 6.31 | > 10 | > 10
6 | CN1CCCN(C)C(=O)COc2cc(ccc2OC(F)F)Nc2ncnc3[nH]cc(c23)C1 [Compound 76] |  | 0.0398 | 0.794 | > 10 | 2 | 2.51 | 1.26 | 2
7 | O=C1CCCCOc2cc(ccc2Cl)Nc2ncnc3[nH]cc(c23)CN2CCN1CC2 [Compound 104] |  | 2 | > 10 | > 10 | > 10 | > 10 | > 10 | > 10
8 | CN1CCN(C)C(=O)CCCCOc2cc(ccc2Cl)Nc2ncnc3[nH]cc(c23)C1 [Compound 49] |  | 3.16 | > 10 | > 10 | > 10 | > 10 | > 10 | > 10
9 | CN1CCCN(C)C(=O)COc2cc(ccc2OCCN2CCOCC2)Nc2ncnc3[nH]cc(c23)C1 [Compound 126] |  | 0.501 | 2 | 10 | 3.98 | 6.31 | 7.94 | 7.94
10 | CN1CCCN(C)C(=O)COc2cc(ccc2Cl)Nc2ncnc3[nH]cc(c23)C1 [Compound 14] |  | 0.0501 | 3.98 | > 10 | 0.631 | 0.794 | > 10 | > 10
11 | CN1CCCN(C)C(=O)COc2cc(ccc2NC(=O)NC2CCCCC2)Nc2ncnc3[nH]cc(c23)C1 [Compound 13] |  | 0.0251 | 1 | > 10 | 2 | 3.98 | 3.98 | > 10
12 | COc1ccc2cc1CN(C)CC(=O)N(C)CCCc1c[nH]c3ncnc(c13)N2 [Compound 34] |  | > 10 | > 10 | > 10 | > 10 | > 10 | > 10 | > 10
13 | CN1CCCN(C)C(=O)COc2cc(ccc2OCCO)Nc2ncnc3[nH]cc(c23)C1 [Compound 80] |  | 0.0631 | 6.31 | > 10 | > 10 | > 10 | > 10 | > 10
14 | CN1CCCN(C)C(=O)COc2cc(ccc2NC(=O)Nc2ccc(Cl)cc2)Nc2ncnc3[nH]cc(c23)C1 [Compound 116] |  | 0.0316 | 0.0794 | 5.01 | 0.2 | 3.98 | 0.631 | 6.31
15 | CN1CCCN(C)C(=O)COc2cc(ccc2Br)Nc2ncnc3[nH]cc(c23)C1 [Compound 139] |  | 0.0631 | 0.631 | 1.58 | 0.501 | 1 | 0.794 | 1
16 | CN1CCCN(C)C(=O)COc2cc(ccc2OCCCNc2ccc(Cl)cc2)Nc2ncnc3[nH]cc(c23)C1 [Compound 142] |  | 0.0794 | 0.398 | > 10 | 0.631 | 3.16 | 2 | 10
17 | COc1ccc2cc1OCC(=O)N(C)CCCN(CC1CC1)Cc1c[nH]c3ncnc(c13)N2 [Compound 59] |  | 0.158 | > 10 | > 10 | > 10 | > 10 | > 10 | > 10
18 | O=C1CCCCOc2cc(cc(C(F)(F)F)c2)Nc2ncnc3[nH]cc(c23)CN2CCN1CC2 [Compound 113] |  | > 10 | > 10 | > 10 | > 10 | > 10 | > 10 | > 10
19 | CN1CCCN(C)C(=O)COc2cc(ccc2OCCOc2ccc(Cl)cc2)Nc2ncnc3[nH]cc(c23)C1 [Compound 134] |  | 0.0794 | 0.0398 | 5.01 | 0.126 | 3.16 | 0.398 | 6.31
20 | CN1CCCN(C)C(=O)Cc2cccc(c2)Nc2ncnc3[nH]cc(c23)C1 [Compound 24] |  | 0.398 | 5.01 | > 10 | 3.98 | 10 | > 10 | 10
21 | CN1CCN(C)C(=O)CN(C)C(=O)CCc2cccc(c2)Nc2ncnc3[nH]cc(c23)C1 [Compound 8] |  | > 10 | > 10 | > 10 | > 10 | > 10 | > 10 | > 10
22 | CN1CCCN(C)C(=O)COc2cc(cc(C(F)(F)F)c2)Nc2ncnc3[nH]cc(c23)C1 [Compound 54] |  | 0.251 | > 10 | > 10 | > 10 | > 10 | > 10 | > 10
23 | COc1ccc2cc1OCC(=O)N(C)CCCN(Cc1ccncc1)Cc1c[nH]c3ncnc(c13)N2 [Compound 62] |  | 0.631 | > 10 | > 10 | > 10 | > 10 | > 10 | > 10
24 | COc1ccc2cc1OCC(=O)N(C1CCCCC1)CCCN(C)Cc1c[nH]c3ncnc(c13)N2 [Compound 64] |  | 0.251 | > 10 | > 10 | > 10 | > 10 | > 10 | > 10
25 | CN1CCCN(C)C(=O)COc2cc(ccc2NC(=O)Nc2cccc(Cl)c2)Nc2ncnc3[nH]cc(c23)C1 [Compound 67] |  | 0.0631 | 2.51 | > 10 | 0.794 | > 10 | 2.51 | > 10
26 | O=C1CCCCOc2cc(ccc2N2CCOCC2)Nc2ncnc3[nH]cc(c23)CN2CCN1CC2 [Compound 121] |  | 6.31 | > 10 | > 10 | > 10 | > 10 | > 10 | > 10

From US8318731B2, “Pyrrolopyrimidines” (Janssen Pharmaceutica NV, priority 2007, dated 2012)
